ChEMBL document CHEMBL1201862, “PubChem BioAssay data set” (2004)
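Cultured in 96-well plates, cells were exposed to test compound for 48 hours across five concentrations. At the GI50, growth is halved.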 Active and inactive are the calls of the source. Rule as the data show it: active = GI50 up to about 1.1 µM and inactive = higher.

Legend:
Test in all cases: DTP human tumour cell line panel, 48 h
786-0 = system: 786-0
A498 = system: A498
A549 = system: A549
ACHN = system: ACHN
CAKI-1 = system: CAKI-1
CCRF-CEM = system: CCRF-CEM
COLO 205 = system: COLO 205
DMS-114 = system: DMS-114
DMS-273 = system: DMS-273
EKVX = system: EKVX
HCC 2998 = system: HCC 2998
HCT-116 = system: HCT-116
HCT-15 = system: HCT-15
HL-60 = system: HL-60
HOP-18 = system: HOP-18
HOP-62 = system: HOP-62
HOP-92 = system: HOP-92
HT-29 = system: HT-29
IGROV-1 = system: IGROV-1
K562 = system: K562
KM-20L2 = system: KM-20L2
KM12 = system: KM12
LOX IMVI = system: LOX IMVI
LXFL 529 = system: LXFL 529
M14 = system: M14
M19-MEL = system: M19-MEL
MOLT-4 = system: MOLT-4
Malme-3M = system: Malme-3M
NCI-H226 = system: NCI-H226
NCI-H23 = system: NCI-H23
NCI-H460 = system: NCI-H460
NCI-H522 = system: NCI-H522
OVCAR-3 = system: OVCAR-3
OVCAR-5 = system: OVCAR-5
OVCAR-8 = system: OVCAR-8
RPMI-8226 = system: RPMI-8226
RXF 393 = system: RXF 393
SF-268 = system: SF-268
SF-295 = system: SF-295
SF-539 = system: SF-539
SK-MEL-28 = system: SK-MEL-28
SK-MEL-2 = system: SK-MEL-2
SK-MEL-5 = system: SK-MEL-5
SK-OV-3 = system: SK-OV-3
SN12C = system: SN12C
SNB-19 = system: SNB-19
SNB-75 = system: SNB-75
SNB-78 = system: SNB-78
SR = system: SR
SW-620 = system: SW-620
TK-10 = system: TK-10
U-251 = system: U-251
UACC-257 = system: UACC-257
UACC-62 = system: UACC-62
UO-31 = system: UO-31
BT-549 = system: BT-549
DLD-1 = system: DLD-1
DU-145 = system: DU-145
Hs-578T = system: Hs-578T
MCF7 = system: MCF7
MDA-MB-231 = system: MDA-MB-231
MDA-MB-435 = system: MDA-MB-435
MDA-N = system: MDA-N
NCI/ADR-RES = system: NCI/ADR-RES
OVCAR-4 = system: OVCAR-4
PC-3 = system: PC-3
T47D = system: T47D
XF498 = system: XF498

`O=C(Nc1nccs1)c1cc(C2=CC=CC([N+](=O)[O-])C=C2)nc(S)n1` (centres undefined) was tested, and the GI50 (786-0) was > 100 µM (inactive), the GI50 (A498) was > 100 µM (inactive) and the GI50 (A549) was > 100 µM (inactive). For the same molecule, the GI50 (ACHN) was > 100 µM (inactive), the GI50 (CAKI-1) was > 100 µM (inactive) and the GI50 (CCRF-CEM) was > 100 µM (inactive). The GI50 (COLO 205) was > 100 µM (inactive), the GI50 (DMS-114) was > 100 µM (inactive) and the GI50 (DMS-273) was > 100 µM (inactive). The GI50 (EKVX) was > 100 µM (inactive), the GI50 (HCC 2998) was > 100 µM (inactive) and the GI50 (HCT-116) was > 100 µM (inactive). The GI50 (HCT-15) was over 100 µM, the GI50 (HL-60) was > 100 µM (inactive) and the GI50 (HOP-18) was > 100 µM (inactive). For the same molecule, the GI50 (HOP-62) was > 100 µM (inactive), the GI50 (HOP-92) was > 100 µM (inactive) and the GI50 (HT-29) was > 100 µM (inactive). The GI50 (IGROV-1) was > 100 µM (inactive), the GI50 (K562) was > 100 µM (inactive) and the GI50 (KM-20L2) was > 100 µM (inactive). The GI50 (KM12) was > 100 µM (inactive), the GI50 (LOX IMVI) was > 100 µM (inactive) and the GI50 (LXFL 529) was > 100 µM (inactive). The GI50 (M14) was > 100 µM (inactive), the GI50 (M19-MEL) was > 100 µM (inactive) and the GI50 (MOLT-4) was > 100 µM (inactive). For the same molecule, the GI50 (Malme-3M) was > 100 µM (inactive), the GI50 (NCI-H226) was > 100 µM (inactive) and the GI50 (NCI-H23) was > 100 µM (inactive). For the same molecule, the GI50 (NCI-H460) was > 100 µM (inactive), the GI50 (NCI-H522) was > 100 µM (inactive) and the GI50 (OVCAR-3) was > 100 µM (inactive). The GI50 (OVCAR-5) was > 100 µM (inactive), the GI50 (OVCAR-8) was > 100 µM (inactive) and the GI50 (RPMI-8226) was > 100 µM (inactive). For the same molecule, the GI50 (RXF 393) was > 100 µM (inactive), the GI50 (SF-268) was > 100 µM (inactive) and the GI50 (SF-295) was > 100 µM (inactive). For the same molecule, the GI50 (SF-539) was > 100 µM (inactive), the GI50 (SK-MEL-28) was > 100 µM (inactive) and the GI50 (SK-MEL-2) was > 100 µM (inactive). The GI50 (SK-MEL-5) was > 100 µM (inactive), the GI50 (SK-OV-3) was > 100 µM (inactive) and the GI50 (SN12C) was > 100 µM (inactive). For the same molecule, the GI50 (SNB-19) was > 100 µM (inactive), the GI50 (SNB-75) was > 100 µM (inactive) and the GI50 (SNB-78) was > 100 µM (inactive). The GI50 (SR) was > 100 µM (inactive), the GI50 (SW-620) was > 100 µM (inactive) and the GI50 (TK-10) was > 100 µM (inactive). For the same molecule, the GI50 (U-251) was > 100 µM (inactive), the GI50 (UACC-257) was > 100 µM (inactive) and the GI50 (UACC-62) was > 100 µM (inactive). The GI50 (UO-31) was > 100 µM (inactive).
For `Oc1cccc(-c2cc(O)c3cc4c(cc3n2)OCO4)c1`, the GI50 (786-0) was 5.52 µM (inactive), the GI50 (A498) was 41.8 µM (inactive) and the GI50 (A549) was 5.27 µM (inactive). The GI50 (ACHN) was 5.85 µM (inactive), the GI50 (BT-549) was 0.867 µM (active) and the GI50 (CCRF-CEM) was 0.54 µM (active). The GI50 (COLO 205) was 2.68 µM (inactive), the GI50 (DLD-1) was 3.43 µM (inactive) and the GI50 (DMS-114) was 0.721 µM (active). For the same molecule, the GI50 (DMS-273) was 1.09 µM (active), the GI50 (DU-145) was 0.302 µM (active) and the GI50 (HCC 2998) was 4.28 µM (inactive). The GI50 (HCT-116) was 1.43 µM (inactive), the GI50 (HCT-15) was 2.74 µM and the GI50 (HL-60) was 1.26 µM (inactive). The GI50 (HOP-18) was > 100 µM (inactive), the GI50 (HOP-62) was 1.6 µM (inactive) and the GI50 (HT-29) was 3.37 µM (inactive). For the same molecule, the GI50 (Hs-578T) was 0.457 µM (active), the GI50 (IGROV-1) was 4.98 µM (inactive) and the GI50 (K562) was 0.505 µM (active). For the same molecule, the GI50 (KM12) was 0.561 µM (active), the GI50 (LOX IMVI) was 4.98 µM (inactive) and the GI50 (LXFL 529) was 1.87 µM (inactive). For the same molecule, the GI50 (M14) was 3.58 µM (inactive), the GI50 (M19-MEL) was 1.49 µM (inactive) and the GI50 (MCF7) was 3.1 µM (inactive). For the same molecule, the GI50 (MDA-MB-231) was 1.92 µM (inactive), the GI50 (MDA-MB-435) was 0.277 µM (active) and the GI50 (MDA-N) was 0.231 µM (active). The GI50 (MOLT-4) was 3.77 µM (inactive), the GI50 (Malme-3M) was 0.352 µM (active) and the GI50 (NCI-H226) was 2.9 µM (inactive). For the same molecule, the GI50 (NCI-H23) was 4.3 µM (inactive), the GI50 (NCI-H460) was 17.8 µM (inactive) and the GI50 (NCI-H522) was 0.284 µM (active). The GI50 (NCI/ADR-RES) was 1.31 µM (inactive), the GI50 (OVCAR-3) was 0.193 µM (active) and the GI50 (OVCAR-4) was > 100 µM (inactive). The GI50 (OVCAR-5) was > 100 µM (inactive), the GI50 (OVCAR-8) was 2.85 µM (inactive) and the GI50 (PC-3) was 1.55 µM (inactive). For the same molecule, the GI50 (RPMI-8226) was 4.03 µM (inactive), the GI50 (RXF 393) was 1.67 µM (inactive) and the GI50 (SF-268) was 1.71 µM (inactive). For the same molecule, the GI50 (SF-295) was 5.74 µM (inactive), the GI50 (SF-539) was 1.7 µM (inactive) and the GI50 (SK-MEL-28) was 2.81 µM (inactive). The GI50 (SK-MEL-2) was 0.851 µM (active), the GI50 (SK-MEL-5) was 1.46 µM (inactive) and the GI50 (SK-OV-3) was 1.41 µM (inactive). For the same molecule, the GI50 (SN12C) was 3.03 µM (inactive), the GI50 (SNB-19) was 3.84 µM (inactive) and the GI50 (SNB-75) was 0.379 µM (active). The GI50 (SNB-78) was 1.03 µM (active), the GI50 (SR) was 0.283 µM (active) and the GI50 (SW-620) was 3.21 µM (inactive). The GI50 (T47D) was 23.7 µM (inactive), the GI50 (TK-10) was 13.2 µM (inactive) and the GI50 (U-251) was 1.43 µM (inactive). The GI50 (UACC-257) was > 26.1 µM (inactive), the GI50 (UACC-62) was 2.42 µM (inactive) and the GI50 (UO-31) was 4.23 µM (inactive). For the same molecule, the GI50 (XF498) was 7.26 µM (inactive).
